Data set [1] has as its system zebrafish neuromast hair cells. The experiment in a line: Zebrafish neuromast hair cell protection assay. The conditions noted are these: for protective activity (in words) / EC50: 200 μM neomycin; for eudismic ratio (ER): HC50 of the less active versus the more active enantiomer.
A short description of data set [2]: Early / in vitro ADME profiling.
A short description of data set [3]: Air oxidation stability. It is filed as physicochemical. The conditions noted are these: oxidation to inactive, highly fluorescent byproduct.
The nature of data set [4]: In vitro toxicity against HepG2 cell line. The conditions noted are these: human.
The test system of data set [5] is CYP. The data set is described as follows: CYP stability / inhibition.
Data set [6] concerns the target hERG ion channel (Homo sapiens, UniProt Q12809). The experiment in a line: cell-based.
In data set [7] the test system is E. coli ATCC25922. The experiment in a line: Interference with neomycin MIC/MBC. It is filed as cell-based.
The nature of data set [8]: Preliminary i.v. toxicity and plasma half-life in rats. The format is in vivo, rat.
Data set [9] has as its system Sprague-Dawley rats. The experiment in a line: Rat ABR assay, kanamycin-induced hearing loss. The conditions noted are these: kanamycin 500 mg/kg/day s.c. 14 days + compound 25 mg/kg/day i.p.
Data set [10] can be described thus: Aqueous solubility. The format is physicochemical.
Data set [11] concerns five strains of P. aeruginosa. The experiment in a line: Interference with aminoglycoside MIC. The format is cell-based.
Data set [12] has as its system M. tuberculosis. The experiment in a line: Interference with amikacin MIC. The format is cell-based.
[13] abbreviates: read-out: HC50, Tables 7, 8 and text, 50% hair cell protection.

Like-named read-outs stand apart in the source and are kept apart here. Where only a bound is given, the exact number is not on record here.

By IC50 is commonly meant the concentration at which inhibition is half-maximal. The half-life is the time needed for the level to fall by half in the phase considered. High values mean slow loss, low ones fast loss.

Sequence of hERG ion channel (Q12809 whole entry): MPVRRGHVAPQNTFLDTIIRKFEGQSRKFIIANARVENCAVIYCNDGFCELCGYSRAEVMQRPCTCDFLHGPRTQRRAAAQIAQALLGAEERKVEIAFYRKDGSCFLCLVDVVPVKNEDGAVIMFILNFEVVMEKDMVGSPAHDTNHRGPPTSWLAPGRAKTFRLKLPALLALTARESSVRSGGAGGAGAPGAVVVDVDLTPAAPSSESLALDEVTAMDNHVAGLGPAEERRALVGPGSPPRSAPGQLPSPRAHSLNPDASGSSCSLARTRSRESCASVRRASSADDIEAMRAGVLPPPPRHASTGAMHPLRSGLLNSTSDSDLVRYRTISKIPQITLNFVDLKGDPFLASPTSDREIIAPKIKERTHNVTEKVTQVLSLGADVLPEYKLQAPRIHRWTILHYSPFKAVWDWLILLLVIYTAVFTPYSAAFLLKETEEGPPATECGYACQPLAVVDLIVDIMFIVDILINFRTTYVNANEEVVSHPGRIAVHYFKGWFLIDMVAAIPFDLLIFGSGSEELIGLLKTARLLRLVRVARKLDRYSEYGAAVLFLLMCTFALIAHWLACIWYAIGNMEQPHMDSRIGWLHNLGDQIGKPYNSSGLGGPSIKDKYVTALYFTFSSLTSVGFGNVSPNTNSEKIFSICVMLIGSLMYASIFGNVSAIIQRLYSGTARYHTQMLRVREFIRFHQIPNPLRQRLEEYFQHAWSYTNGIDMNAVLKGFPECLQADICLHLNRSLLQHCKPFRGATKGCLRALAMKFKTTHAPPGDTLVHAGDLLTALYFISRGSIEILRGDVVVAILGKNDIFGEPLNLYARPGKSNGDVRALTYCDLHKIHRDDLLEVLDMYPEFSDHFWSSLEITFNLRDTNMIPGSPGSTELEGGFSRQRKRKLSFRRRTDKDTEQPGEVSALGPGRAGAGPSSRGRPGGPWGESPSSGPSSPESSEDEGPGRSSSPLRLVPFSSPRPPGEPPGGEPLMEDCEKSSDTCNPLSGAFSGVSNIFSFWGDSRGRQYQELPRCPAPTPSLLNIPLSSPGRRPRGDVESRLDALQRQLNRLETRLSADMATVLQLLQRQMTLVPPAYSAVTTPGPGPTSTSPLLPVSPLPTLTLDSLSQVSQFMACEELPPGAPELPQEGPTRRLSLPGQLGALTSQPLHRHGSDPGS

Take `CCN1CCc2c(sc(NC(=O)NCc3cccc(Cl)c3)c2C(N)=O)C1.Cl` [compound 11]: the “protective activity (in words)” value in data set [1] was “inactive”.
On the same count and under the same terms, the value for `Cl.NC(=O)c1c(NC(=O)Nc2ccc(Cl)cc2)sc2c1[C@H]1CC[C@@H](C2)N1` [compound 98] was “significantly reduced activity”.
On to `Cl.NC(=O)c1c(NC(=O)Nc2ccc(Cl)cc2)sc2c1C[C@H]1CC[C@@H]2N1` [compound 95], for which, in data set [1], the “protective activity (in words)” value is given as “significantly reduced activity” and the “eudismic ratio (ER)” value was found to be 14.7.
`CCN1CCc2c(sc(NC(=O)Nc3ccc(Cl)cc3)c2C(=O)O)C1.O=C(O)C(F)(F)F` [compound 16]: the “protective activity (in words)” value in data set [1] is recorded as “greatly reduces the activity”.
On the same count and under the same terms, the value for “2-amino-4,5,6,7-tetrahydrothieno[2,3-c]pyridine-3-carboxamide [compound 28]” was “inactive”.
For “(+/−)-2-[3-(4-Chlorophenyl)ureido]-9-methyl-5,6,7,8-tetrahydro-4H-5,8-epiminocyclohepta[b]thiophene-3-carboxamide [compound 88]”, in [1] (setting [13]), the EC50 amounted to 360 nM.
`CCN1CCc2c(sc(NC=O)c2C(N)=O)C1.Cl` [compound 29]: the “protective activity (in words)” value in data set [1] is given as “no protective activity”.
Take `CC(C)(C)OC(=O)N1CCc2c(sc(NC(=O)Nc3ccc(Cl)cc3)c2C(N)=O)C1` [compound 59]: in [1], the “protective activity (in words)” value is recorded as “completely suppressed”.
Consider `CCN1CCc2c(sc(NC(=O)NCCN3CCOCC3)c2C(N)=O)C1` [compound 13], for which the “protective activity (in words)” value in data set [1] was “inactive”.
Consider `CC1(C)Cc2c(sc(NC(=O)Nc3ccc(Cl)cc3)c2C(N)=O)C(C)(C)N1.Cl` [compound 87], for which the metabolic stability entry in data set [2] (in vitro ADME profiling) was “excellent”. Further, in data set [3], the air oxidation entry is “resistant to the oxidation pathway”. For the same molecule, in [4], the IC50 is more than 300000 nM. Further, the “CYP stability or inhibition” value in [5] is “no issues”.
Regarding `CCN1CCc2c(sc(NC(=O)Nc3ccc(Cl)cc3)c2C(=O)OC)C1.Cl` [compound 17], in data set [1], the “protective activity (in words)” value is listed as “greatly reduces the activity”.
On the same count and under the same terms, the value for `CCN1CCc2c(sc(NC(=O)CN3CCCCC3)c2C(N)=O)C1` [compound 27] was “no protective activity”.
Take `NC(=O)c1c(NC(=O)Nc2ccc(Cl)cc2)sc2c1CCN(CC1CCC1)C2` [compound 54]: it took 730 nM to reach half-maximal inhibition in [6] (IC50).
On to `CN1[C@@H]2CC[C@H]1c1sc(NC(=O)Nc3ccc(Cl)cc3)c(C(N)=O)c1C2.Cl` [compound 92], for which, in data set [1], the “protective activity (in words)” value is “significantly reduced activity” and the “eudismic ratio (ER)” value came to 26.7.
For `CC(C)(C)OC(=O)CCCN1CCc2c(sc(NC(=O)Nc3ccc(Cl)cc3)c2C(N)=O)C1` [compound 62], in [6], the IC50 is 3840 nM.
Turning to `CCN1CCc2c(sc(NC(=O)Nc3ccc(Cl)cc3)c2C(N)=O)C1.Cl` [compound 1, 2-[3-(4-Chlorophenyl)ureido]-6-ethyl-4,5,6,7-tetrahydrothieno[2,3-c]pyridine-3-carboxamide], in data set [7], the “interference with neomycin minimal bactericidal concentration (MBC)” value was “no interference” and the “interference with neomycin minimal inhibitory concentration (MIC)” value is given as “no interference”. For the same molecule, the half-life in data set [8] (rat, plasma, iv, 25 mg/kg) is 1.7 h. The toxicity i.v. result in [8] (rats, i.v., doses up to 25 mg/kg) is on record as “non-toxic”. Also, in data set [2] (early ADME characterization), the “clearance profile (in words)” value is on record as “acceptable”, the “membrane permeability (in words)” value is “adequate” and the “plasma protein binding (in words)” value was “reasonable”. Further, the air oxidation entry in [3] is listed as “gradually undergo partial air oxidation”. Moreover, the “protection from kanamycin-induced hearing loss (ABR)” value in data set [9] (8 and 16 kHz) was “completely prevented”. In addition, the “protection from kanamycin-induced hearing loss (ABR)” value in data set [9] (32 kHz) is on record as “mostly resolved”. Further, the “aqueous solubility (in words)” value in data set [10] is recorded as “adequate”. The IC50 in [4] was more than 300000 nM. The “CYP stability or inhibition” value in data set [5] is given as “no issues”.
In data set [6], `CC(C)C[N+]1(C)CCc2c(sc(NC(=O)Nc3ccc(Cl)cc3)c2C(N)=O)C1` (stereo not drawn) [compound 71] showed a 50% inhibitory concentration (IC50) of 9750 nM.
Turning to `CCN1CCc2c(sc(NC(=O)[C@@H]3CCCN3)c2C(N)=O)C1` [compound 30], in [1], the “protective activity (in words)” value is recorded as “no protective activity”.
As to `CCN1CCc2c(sc(NC(=O)NCC3CCCO3)c2C(N)=O)C1` (stereo not drawn) [compound 12], the “protective activity (in words)” value in [1] is “inactive”.
On the same count and under the same terms, then `CCN1CCc2c(sc(NC(=O)Nc3ccc(Cl)cc3)c2C(=O)c2nnco2)C1.Cl` [compound 22], with “inactive”; and `CCN1CCc2c(sc(NC(=O)Nc3ccc(Cl)cc3)c2C#N)C1.Cl` [compound 19], with “greatly reduces the activity”.
Turning to “(+)-2-[3-(4-Chlorophenyl)ureido]-9-methyl-5,6,7,8-tetrahydro-4H-5,8-epiminocyclohepta[b]thiophene-3-carboxamide [compound 90]”, in data set [11], the “interference in MIC for tobramycin, amikacin, kanamycin and neomycin” value is on record as “no interference”. In addition, the “interference in amikacin MIC” value in [12] is listed as “no interference”. Besides, in data set [7], the “interference with neomycin minimal inhibitory concentration (MIC)” value is recorded as “no interference”. For the same molecule, in data set [1] (setting [13]), the EC50 amounted to 120 nM.
Consider `CCN1CCc2c(ccc(NC(=O)Nc3ccc(Cl)cc3)c2C(N)=O)C1` [compound 38], for which the “protective activity (in words)” value in data set [1] was “no potency”.
Take `NC(=O)c1c(NC(=O)Nc2ccc(Cl)cc2)sc2c1CCN(CC1CC1)C2` [compound 53]: in [6], the midpoint of inhibition, the IC50, lay at 2670 nM.
Turning to `CCN1CCc2c(sc(NC(=O)Nc3ccc(Cl)cc3)c2C(=O)c2nc(C)no2)C1.Cl` [compound 21], the “protective activity (in words)” value in [1] was “inactive”.
Take `CCN1CCc2c(sc(NC(=O)C3(C(=O)Nc4ccc(Cl)cc4)CC3)c2C(N)=O)C1` [compound 31]: the “protective activity (in words)” value in data set [1] is listed as “lack of potency”.
Same read-out and setting: then `CCN1CCc2c(sc(NC(=O)Nc3cscc3C(=O)OC)c2C(N)=O)C1` [compound 15], with “inactive”.
Take `NC(=O)c1c(NC(=O)Nc2ccc(Cl)cc2)sc2c1[C@@H]1CC[C@H](C2)N1` [compound 99]: the EC50 in [1] (Danio rerio, read-out: HC50, text) amounted to 33 nM.
For `CCN1CCc2c(sc(NC(=O)Nc3ccc(Cl)cc3)c2C(=O)N2CCOCC2)C1.Cl` [compound 20], the “protective activity (in words)” value in data set [1] is listed as “greatly reduces the activity”.
`CCN1CCc2c(sc(NC(=O)c3ccccc3)c2C(N)=O)C1.Cl` [compound 32]: the “protective activity (in words)” value in data set [1] was “no protective activity”.
For “(−)-2-[3-(4-Chlorophenyl)ureido]-9-methyl-5,6,7,8-tetrahydro-4H-5,8-epiminocyclohepta[b]thiophene-3-carboxamide [compound 89]”, in [1], the “protective activity (in words)” value is reported as “significantly reduced activity”. The EC50 in data set [1] (setting [13]) was found to be 2250 nM.
In the case of `CCN1CCc2c(sc(NC(=O)C3(c4ccc(Cl)cc4)CC3)c2C(N)=O)C1.Cl` [compound 33], the “protective activity (in words)” value in data set [1] is reported as “no protective activity”.
`C[N+]1(CC2CCCCC2)CCc2c(sc(NC(=O)Nc3ccc(Cl)cc3)c2C(N)=O)C1` (stereo not drawn) [compound 76] came in with a 50% inhibitory concentration (IC50) in [6] of more than 30000 nM.
Turning to `CC(C)(C)OC(=O)CN1CCc2c(sc(NC(=O)Nc3ccc(Cl)cc3)c2C(N)=O)C1` [compound 60], the “protective activity (in words)” value in [1] is reported as “completely suppressed”.
The same measure, in the same setting: then `CCN1CCc2c(sc(NC(=O)Nc3ccccc3)c2C(N)=O)C1.Cl` [compound 14], with “inactive”.
Take `CCN1CCc2c(sc(NC(=O)Nc3ccc(Cl)cc3)c2C(=O)NC)C1.Cl` [compound 18]: in data set [1], the “protective activity (in words)” value is “greatly reduces the activity”.

For the origin of these results see paper PMC5889090 (Journal of medicinal chemistry, 2017).
